Structures are written as SMILES. Where a SMILES comes first, the peptide text is derived from it. [ ]: non-standard residue; d: D form. The star is where a group is joined. NHCH2CH2OH = OCCN*; For = O=C*

This note sets out measurements from publication PMC7531004, “Discovery of gramicidin A analogues with altered activities by multidimensional screening of a one-bead-one-compound library” (Nature Communications, 2020).

Data set [1] is described as follows: H+/Na+ transport assay of bead-derived peptides (one-point).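 Note: relative to parent gramicidin A activity set to 1.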 It is filed as biochemical. Details: key: relative activity; mean of two control wells = 1.00. Particulars: bead-derived peptide solution, EYPC/EYPG LUVs. The essentials: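 One-point screen: peptide + pyranine-loaded LUVs, 30 min RT with vortexing, 96-well. Read-out is fluorescence intensity scaled as 100 × (Ix – I0)/(Imax – I0). Imax from Triton X-100, I0 from untreated vesicles, and the mean of the two control wells is set to 1.00.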

The conditions of data set [2]: cell viability/%. The essentials:
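First, library peptide stocks are diluted 250-fold in RPMI1640 with 10% heat-inactivated FBS. Next, they are mixed with P388 cells to give 1 × 10^4 cells/mL and incubated 92 h at 37 °C, 5% CO2. Finally, viability (%) is scored by WST-1 absorbance at 415 nm.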

Data set [3] concerns Streptococcus pyogenes SSI-9. Nature of the data set: Antibacterial activity assay of bead-derived peptides (three concentrations). Details: key: +++: inhibition by the 640-fold diluted peptide solution; ++: inhibition by the 160-fold diluted solution; +: inhibition by the 40-fold diluted solution; -: no inhibition. It is filed as cell-based. The settings on record: S. pyogenes, bead-derived peptide solution, three concentrations. The essentials: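 Bead-derived library peptide stocks in DMSO were tested undiluted and after 4- and 16-fold DMSO dilution against S. pyogenes SSI-9 (2 × 10^5 CFU/well) in cation-adjusted Mueller Hinton Broth with 5% laked horse blood. After 18 h at 37 °C, wells were scored for precipitation of grown cells.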

For `CC(C)C[C@@H](NC(=O)[C@H](C)NC(=O)[C@H](NC(=O)[C@H](C)NC(=O)CNC(=O)[C@@H](NC=O)C(C)C)[C@H](C)O)C(=O)N[C@H](C(=O)N[C@H](CC(C)C)C(=O)N[C@@H](Cc1c[nH]c2ccccc12)C(=O)N[C@H](CC(C)C)C(=O)N[C@@H](Cc1c[nH]c2ccccc12)C(=O)N[C@H](CC(C)C)C(=O)N[C@@H](Cc1c[nH]c2ccccc12)C(=O)N[C@H](CC(C)C)C(=O)N[C@@H](Cc1c[nH]c2ccccc12)C(=O)NCCO)C(C)C` [compound 5618] (For-VGA[dT]A[dL]V[dL]W[dL]W[dL]W[dL]W-NHCH2CH2OH), in data set [1], the “H+/Na+ transport activity normalized against the value of 1 (1.00)” value (“H+/Na+ transport activity normalized” below) is 1.13. Further, the viability – broadly, a per cent measure of how many cells are alive, often set against a control – in data set [2] was 85.1%. Further, in data set [3], the antibacterial activity result is listed as “-”.

As to `CNC(=O)C[C@@H](NC(=O)[C@@H](NC(=O)[C@H](NC(=O)[C@H](C)NC(=O)[C@@H](CC(C)C)NC(=O)[C@H](C)NC(=O)CNC(=O)[C@@H](NC=O)C(C)C)C(C)C)C(C)C)C(=O)N[C@@H](Cc1c[nH]c2ccccc12)C(=O)N[C@@H](C(=O)N[C@@H](Cc1c[nH]c2ccccc12)C(=O)N[C@@H](C(=O)N[C@@H](Cc1c[nH]c2ccccc12)C(=O)N[C@H](CC(C)C)C(=O)N[C@@H](Cc1c[nH]c2ccccc12)C(=O)NCCO)C(C)C)C(C)C` [compound 3596] (For-VGA[dL]A[dV]V[dD](NHMe)W[dV]W[dV]W[dL]W-NHCH2CH2OH), the “H+/Na+ transport activity normalized” value in data set [1] is given as 1.06. This compound also showed a viability in data set [2] of 100%. The antibacterial activity entry in data set [3] is “-”.

For the compound `CC(C)C[C@@H](NC(=O)[C@H](C)NC(=O)CNC(=O)[C@@H](NC=O)C(C)C)C(=O)N[C@@H](C)C(=O)N[C@@H](C(=O)N[C@H](C(=O)N[C@@H](C(=O)N[C@@H](Cc1c[nH]c2ccccc12)C(=O)N[C@@H](C(=O)N[C@@H](Cc1c[nH]c2ccccc12)C(=O)N[C@@H](C(=O)N[C@@H](Cc1c[nH]c2ccccc12)C(=O)N[C@@H](C(=O)N[C@@H](Cc1c[nH]c2ccccc12)C(=O)NCCO)C(C)C)C(C)C)C(C)C)C(C)C)C(C)C)[C@H](C)O` [compound 5343] (For-VGA[dL]A[dT]V[dV]W[dV]W[dV]W[dV]W-NHCH2CH2OH), in data set [1], the “H+/Na+ transport activity normalized” value stood at 1.33. This compound also yielded a viability in data set [2] of 100%. Besides, the antibacterial activity result in data set [3] is “-”.

Consider `CC(C)C[C@@H](NC(=O)[C@H](Cc1c[nH]c2ccccc12)NC(=O)[C@H](NC(=O)[C@@H](NC(=O)[C@H](NC(=O)[C@H](C)NC(=O)[C@H](NC(=O)[C@H](C)NC(=O)CNC(=O)[C@@H](NC=O)C(C)C)C(C)C)C(C)C)C(C)C)[C@H](C)O)C(=O)N[C@@H](Cc1c[nH]c2ccccc12)C(=O)N[C@H](CC(C)C)C(=O)N[C@@H](Cc1c[nH]c2ccccc12)C(=O)N[C@@H](C(=O)N[C@@H](Cc1c[nH]c2ccccc12)C(=O)NCCO)C(C)C` [compound 1523] (For-VGA[dV]A[dV]V[dT]W[dL]W[dL]W[dV]W-NHCH2CH2OH), for which the “H+/Na+ transport activity normalized” value in data set [1] amounted to 1.04. In data set [2], the viability is 100%. Besides, the antibacterial activity entry in data set [3] was “+”.

In the case of `CC(C)C[C@@H](NC(=O)[C@H](Cc1c[nH]c2ccccc12)NC(=O)[C@@H](CC(C)C)NC(=O)[C@H](Cc1c[nH]c2ccccc12)NC(=O)[C@@H](CC(C)C)NC(=O)[C@H](Cc1c[nH]c2ccccc12)NC(=O)[C@H](NC(=O)[C@@H](NC(=O)[C@H](NC(=O)[C@H](C)NC(=O)[C@H](NC(=O)[C@H](C)NC(=O)CNC(=O)[C@@H](NC=O)C(C)C)C(C)C)C(C)C)C(C)C)[C@H](C)O)C(=O)N[C@@H](Cc1c[nH]c2ccccc12)C(=O)NCCO` [compound 10353] (For-VGA[dV]A[dV]V[dT]W[dL]W[dL]W[dL]W-NHCH2CH2OH), the “H+/Na+ transport activity normalized” value in data set [1] is listed as 1.02. The compound also had a viability in data set [2] of 100%. Also, in data set [3], the antibacterial activity entry is recorded as “-”.

As for `CC(C)C[C@@H](NC(=O)[C@H](Cc1c[nH]c2ccccc12)NC(=O)[C@H](NC(=O)[C@H](Cc1c[nH]c2ccccc12)NC(=O)[C@@H](CC(C)C)NC(=O)[C@@H](NC(=O)[C@H](NC(=O)[C@H](C)NC(=O)[C@H](NC(=O)[C@H](C)NC(=O)CNC(=O)[C@@H](NC=O)C(C)C)[C@H](C)O)C(C)C)C(C)C)[C@H](C)O)C(=O)N[C@@H](Cc1c[nH]c2ccccc12)C(=O)N[C@@H](C(=O)N[C@@H](Cc1c[nH]c2ccccc12)C(=O)NCCO)C(C)C` [compound 13245] (For-VGA[dT]A[dV]V[dL]W[dT]W[dL]W[dV]W-NHCH2CH2OH), the “H+/Na+ transport activity normalized” value in data set [1] came out at 1.07. In data set [2], this compound showed a viability of 100%. In data set [3], the antibacterial activity entry is listed as “-”.

For `CC(C)C[C@@H](NC(=O)[C@H](C)NC(=O)[C@H](NC(=O)[C@H](C)NC(=O)CNC(=O)[C@@H](NC=O)C(C)C)C(C)C)C(=O)N[C@H](C(=O)N[C@H](CC(C)C)C(=O)N[C@@H](Cc1c[nH]c2ccccc12)C(=O)N[C@H](CC(C)C)C(=O)N[C@@H](Cc1c[nH]c2ccccc12)C(=O)N[C@@H](C(=O)N[C@@H](Cc1c[nH]c2ccccc12)C(=O)N[C@@H](C(=O)N[C@@H](Cc1c[nH]c2ccccc12)C(=O)NCCO)[C@H](C)O)C(C)C)C(C)C` [compound 3828] (For-VGA[dV]A[dL]V[dL]W[dL]W[dV]W[dT]W-NHCH2CH2OH), in data set [1], the “H+/Na+ transport activity normalized” value was 1.02. The viability in data set [2] came out at 95.2%. Further, the antibacterial activity entry in data set [3] is recorded as “+”.

In the case of `CNC(=O)C[C@@H](NC(=O)[C@H](Cc1c[nH]c2ccccc12)NC(=O)[C@@H](CC(C)C)NC(=O)[C@H](Cc1c[nH]c2ccccc12)NC(=O)[C@@H](CC(C)C)NC(=O)[C@H](Cc1c[nH]c2ccccc12)NC(=O)[C@H](NC(=O)[C@@H](NC(=O)[C@H](NC(=O)[C@H](C)NC(=O)[C@H](NC(=O)[C@H](C)NC(=O)CNC(=O)[C@@H](NC=O)C(C)C)C(C)C)C(C)C)C(C)C)C(C)C)C(=O)N[C@@H](Cc1c[nH]c2ccccc12)C(=O)NCCO` [compound 7049] (For-VGA[dV]A[dV]V[dV]W[dL]W[dL]W[dD](NHMe)W-NHCH2CH2OH), the “H+/Na+ transport activity normalized” value in data set [1] stood at 1.10. This compound also returned a viability in data set [2] of 100%. Besides, the antibacterial activity entry in data set [3] is “-”.

Take `CC(C)C[C@@H](NC(=O)[C@H](C)NC(=O)[C@H](NC(=O)[C@H](C)NC(=O)CNC(=O)[C@@H](NC=O)C(C)C)[C@H](C)O)C(=O)N[C@H](C(=O)N[C@H](CC(C)C)C(=O)N[C@@H](Cc1c[nH]c2ccccc12)C(=O)N[C@@H](C(=O)N[C@@H](Cc1c[nH]c2ccccc12)C(=O)N[C@H](CC(C)C)C(=O)N[C@@H](Cc1c[nH]c2ccccc12)C(=O)N[C@@H](C(=O)N[C@@H](Cc1c[nH]c2ccccc12)C(=O)NCCO)C(C)C)C(C)C)C(C)C` [compound 102] (For-VGA[dT]A[dL]V[dL]W[dV]W[dL]W[dV]W-NHCH2CH2OH): the “H+/Na+ transport activity normalized” value in data set [1] was found to be 1.09. This compound had a viability in data set [2] of 100%. Besides, the antibacterial activity result in data set [3] is “-”.

In the case of `CNC(=O)C[C@@H](NC(=O)[C@@H](NC(=O)[C@@H](CC(C)C)NC(=O)[C@H](C)NC(=O)[C@H](NC(=O)[C@H](C)NC(=O)CNC(=O)[C@@H](NC=O)C(C)C)C(C)C)C(C)C)C(=O)N[C@@H](Cc1c[nH]c2ccccc12)C(=O)N[C@@H](C(=O)N[C@@H](Cc1c[nH]c2ccccc12)C(=O)N[C@@H](C(=O)N[C@@H](Cc1c[nH]c2ccccc12)C(=O)N[C@H](CC(C)C)C(=O)N[C@@H](Cc1c[nH]c2ccccc12)C(=O)NCCO)C(C)C)C(C)C` [compound 5991] (For-VGA[dV]A[dL]V[dD](NHMe)W[dV]W[dV]W[dL]W-NHCH2CH2OH), the “H+/Na+ transport activity normalized” value in data set [1] is listed as 1.00. In data set [2], this compound came in with a viability of 94.7%. Moreover, the antibacterial activity entry in data set [3] is given as “-”.

With `CC(C)C[C@@H](NC(=O)[C@H](Cc1c[nH]c2ccccc12)NC(=O)[C@@H](CC(C)C)NC(=O)[C@H](Cc1c[nH]c2ccccc12)NC(=O)[C@@H](CC(C)C)NC(=O)[C@H](Cc1c[nH]c2ccccc12)NC(=O)[C@H](NC(=O)[C@@H](NC(=O)[C@H](NC(=O)[C@H](C)NC(=O)[C@H](NC(=O)[C@H](C)NC(=O)CNC(=O)[C@@H](NC=O)C(C)C)[C@H](C)O)C(C)C)C(C)C)C(C)C)C(=O)N[C@@H](Cc1c[nH]c2ccccc12)C(=O)NCCO` [compound 3786] (For-VGA[dT]A[dV]V[dV]W[dL]W[dL]W[dL]W-NHCH2CH2OH), the “H+/Na+ transport activity normalized” value in data set [1] is 1.18. Moreover, the viability in data set [2] turned out to be 100%. Also, the antibacterial activity result in data set [3] is “-”.

As for `CC(C)C[C@@H](NC(=O)[C@H](Cc1c[nH]c2ccccc12)NC(=O)[C@@H](CC(C)C)NC(=O)[C@H](Cc1c[nH]c2ccccc12)NC(=O)[C@H](NC(=O)[C@H](Cc1c[nH]c2ccccc12)NC(=O)[C@H](NC(=O)[C@@H](NC(=O)[C@H](NC(=O)[C@H](C)NC(=O)[C@H](NC(=O)[C@H](C)NC(=O)CNC(=O)[C@@H](NC=O)C(C)C)C(C)C)C(C)C)C(C)C)C(C)C)C(C)C)C(=O)N[C@@H](Cc1c[nH]c2ccccc12)C(=O)NCCO` [compound 1119] (For-VGA[dV]A[dV]V[dV]W[dV]W[dL]W[dL]W-NHCH2CH2OH), the “H+/Na+ transport activity normalized” value in data set [1] was determined as 1.10. This compound gave a viability in data set [2] of 100%. In addition, the antibacterial activity result in data set [3] is “-”.
